# According to patent publication US20120157401A1, “METHODS FOR TREATING NEUROFIBROMATOSIS” (PTC Therapeutics, Inc., priority 2009, published 2012):
# Where two headings read alike, the source gives them in different places.
# Test system: hypoxia-inducible endogenous VEGF expression
# Experiment: Hypoxia-inducible endogenous VEGF expression ELISA in HeLa cells, dose-response EC50 (Table 3)
# Format: cell-based, human
# Protocol: The ability of the Compounds to modulate hypoxia-inducible endogenous VEGF expression may be analyzed as follows. VEGF protein levels may be monitored by an ELISA assay (R&D Systems). Briefly, HeLa cells may be cultured for 24-48 hours under hypoxic conditions (1% O2, 5% CO2, balanced with nitrogen) in the presence or absence of a Compound. The conditioned media may then be assayed by ELISA, and the concentration of VEGF calculated from the standard ELISA curve of each assay.
# A dose-response analysis may be performed using the ELISA assay and conditions described above. The conditions for the dose-response ELISA are analogous to those described above. A series of, e.g., seven different concentrations may be analyzed. In parallel, a dose-response cytotoxicity assay may be performed using Cell Titer Glo (Promega) under the same conditions as the ELISA to ensure that the inhibition of VEGF expression was not due to the cytotoxicity.
# [1] = Homo sapiens, HeLa cells, hypoxic conditions (1% O2), 24-48 hours, VEGF in conditioned media, read-out: ELISA EC50
# [2] = Homo sapiens, HeLa cells, hypoxic conditions (1% O2), VEGF ELISA of conditioned media, read-out: ELISA EC50
# [3] = Homo sapiens, HeLa, read-out: ELISA EC50 μM
# [4] = HeLa cells, hypoxic conditions (1% O2), 24-48 hours, VEGF in conditioned media, read-out: ELISA EC50
Compound,EC50 [1] [µM],EC50 [3] [µM],also measured
O=C(Oc1ccccc1)N1CCc2c([nH]c3ccc(Cl)cc23)C1c1ccccc1 (centres unmarked) [Compound 121],0.008 to 0.04,,
O=C(Oc1ccc(F)cc1)N1CCc2c([nH]c3ccc(Cl)cc23)[C@@H]1c1ccc(OC2CCOCC2)cc1 [Compound 1604],,,EC50 [2]: < 0.008 µM
O=C(Oc1ccc(Cl)cc1)N1CCc2c([nH]c3ccc(Cl)cc23)C1c1ccc(OCCCCN2CCCCC2)cc1 (centres unmarked) [Compound 703],,0.008 to 0.04,
Cc1ccc(OC(=O)N2CCc3c([nH]c4ccc(Cl)cc34)C2c2ccc(OCCCCl)cc2)cc1 (centres unmarked) [Compound 915],< 0.008,,
O=C(Oc1ccc(Cl)cc1)N1CCc2c([nH]c3ccc(Cl)cc23)C1c1ccc(OCCCCCCn2cncn2)cc1 (centres unmarked) [Compound 791],< 0.008,,
CCC(=O)NCC(O)CCOc1ccc([C@H]2c3[nH]c4ccc(Cl)cc4c3CCN2C(=O)Oc2ccc(Cl)cc2)cc1 (some centres unmarked) [Compound 1625],,,EC50 [2]: < 0.008 µM
COCCOc1ccc(C2c3[nH]c4ccc(Cl)cc4c3CCN2C(=O)Oc2ccc(F)cc2)cc1 (centres unmarked) [Compound 388],< 0.008,,
CC(C)SCCCOc1ccc(C2c3[nH]c4ccc(Cl)cc4c3CCN2C(=O)Oc2ccc(Cl)cc2)cc1 (centres unmarked) [Compound 1553],,,EC50 [2]: < 0.008 µM
CN(C)CCN(C)CCCOc1ccc([C@H]2c3[nH]c4ccc(Cl)cc4c3CCN2C(=O)Oc2ccc(Cl)cc2)cc1 [Compound 1611],,< 0.008,
O=C(Oc1ccc(F)cc1)N1CCc2c([nH]c3ccc(Br)cc23)C1c1ccc(OCC(O)CO)cc1 (centres unmarked) [Compound 1343],,,EC50 [2]: < 0.008 µM
Nc1ccn(CCOc2ccc(C3c4[nH]c5ccc(Cl)cc5c4CCN3C(=O)Oc3ccc(Cl)cc3)cc2)n1 (centres unmarked) [Compound 1417],,,EC50 [2]: < 0.008 µM
O=C(Oc1ccc(F)cc1)N1CCc2c([nH]c3ccc(Br)cc23)C1c1ccc(C(F)(F)F)cc1 (centres unmarked) [Compound 397],< 0.008,,
O=C(Oc1ccc(Cl)cc1)N1CCc2c([nH]c3ccc(Cl)cc23)[C@@H]1c1ccc(OC[C@H](O)CO)cc1 [Compound 1223],< 0.008,,
O=C(Oc1ccc(Cl)cc1)N1CCc2c([nH]c3ccc(Cl)cc23)C1c1ccc(NC2CCOCC2)cc1 (centres unmarked) [Compound 440],< 0.008,,
O=C(COc1ccc(C2c3[nH]c4ccc(Cl)cc4c3CCN2C(=O)Oc2ccc(F)cc2)cc1)N1CCN(CCO)CC1 (centres unmarked) [Compound 1064],,0.008 to 0.04,
O=C(Oc1ccc(Cl)cc1)N1CCc2c([nH]c3ccc(Cl)cc23)C1c1ccc(OCCCN2CCC(CO)C2)cc1 (centres unmarked) [Compound 1098],,0.008 to 0.04,
O=C(Oc1ccc(F)cc1)N1CCc2c([nH]c3ccc(Cl)cc23)C1c1ccc(OCCCCCCN2CCCC2)cc1 (centres unmarked) [Compound 773],,< 0.008,
O=C(Oc1ccc(Cl)cc1)N1CCc2c([nH]c3ccc(Cl)cc23)[C@@H]1c1ccc(OC2CCOCC2)cc1 [Compound 1605],,,EC50 [2]: < 0.008 µM
CC(=O)Oc1ccc([C@H]2c3[nH]c4ccc(Cl)cc4c3CCN2C(=O)Oc2ccc(Cl)cc2)cc1 [Compound 1538],,,EC50 [2]: < 0.008 µM
CC(C)OC(=O)Nc1ccc(C2c3[nH]c4ccc(Cl)cc4c3CCN2C(=O)Oc2ccc(Cl)cc2)cc1 (centres unmarked) [Compound 489],0.04 to 0.2,,
CN1CCN(CCCCOc2ccc(C3c4[nH]c5ccc(Cl)cc5c4CCN3C(=O)Oc3ccc(F)cc3)cc2)CC1 (centres unmarked) [Compound 740],,0.04 to 0.2,

Compound,EC50 [1] [µM],EC50 [3] [µM],also measured
[H]/N=c1\sc(C)cn1CCOc1ccc(C2c3[nH]c4ccc(Cl)cc4c3CCN2C(=O)Oc2ccc(Cl)cc2)cc1 (centres unmarked) [Compound 1394],,,EC50 [2]: < 0.008 µM
Cc1ccc(OC(=O)N2CCc3c([nH]c4ccc(Cl)cc34)C2c2ccc(OCCCn3ccnc3)cc2)cc1 (centres unmarked) [Compound 900],< 0.008,,
COCCN(C)CCCOc1ccc(C2c3[nH]c4ccc(Cl)cc4c3CCN2C(=O)Oc2ccc(F)cc2)cc1 (centres unmarked) [Compound 992],,0.04 to 0.2,
O=C(Oc1ccc(Cl)cc1)N1CCc2c([nH]c3ccc(Cl)cc23)C1c1ccc(OCC(O)Cn2ccnn2)cc1 (centres unmarked) [Compound 973],0.008 to 0.04,,
CC(C)NCCCCCCOc1ccc(C2c3[nH]c4ccc(Cl)cc4c3CCN2C(=O)Oc2ccc(F)cc2)cc1 (centres unmarked) [Compound 774],,0.008 to 0.04,
O=C(Oc1ccc(Cl)cc1)N1CCc2c([nH]c3ccc(Br)cc23)C1c1ccc(C(F)(F)F)cc1 (centres unmarked) [Compound 405],< 0.008,,
O=C(Oc1ccc(F)cc1)N1CCc2c([nH]c3ccc(Cl)cc23)C1c1ccc(OCCCn2ccnc2)cc1 (centres unmarked) [Compound 994],,,EC50 [4]: < 0.008 µM
O=C(Oc1ccc(Cl)cc1)N1CCc2c([nH]c3ccc(Cl)cc23)[C@@H]1c1ccc(OCC(CO)CO)cc1 [Compound 1209],< 0.008,,
COc1ccc(OC(=O)N2CCc3c([nH]c4ccc(Cl)cc34)C2c2ccc(OCC(=O)N3CCN(CCCN(C)C)CC3)cc2)cc1 (centres unmarked) [Compound 1029],,> 1,
O=C(Oc1ccc(Cl)cc1)N1CCc2c([nH]c3ccc(Cl)cc23)[C@@H]1c1ccc(OCCCn2ccnn2)cc1 [Compound 1068],< 0.008,,
CCOC(=O)NCC(O)CCOc1ccc([C@H]2c3[nH]c4ccc(Cl)cc4c3CCN2C(=O)Oc2ccc(Cl)cc2)cc1 (some centres unmarked) [Compound 1636],,,EC50 [2]: < 0.008 µM
O=C(Oc1ccc(F)cc1)N1CCc2c([nH]c3ccc(Cl)cc23)C1c1ccc(OCCNc2nccs2)cc1 (centres unmarked) [#837],< 0.008,,
COc1ccc(OC(=O)N2CCc3c([nH]c4ccc(Br)cc34)[C@@H]2c2ccc(Cl)cc2)cc1 [#332],> 1,,
COc1ccc(OC(=O)N2CCc3c([nH]c4ccc(Cl)cc34)C2c2ccc(OCCCN(C)C)cc2)cc1 (centres unmarked) [Compound 501],,0.04 to 0.2,
O=C(Oc1ccc(Cl)cc1)N1CCc2c([nH]c3ccc(Cl)cc23)[C@@H]1c1ccc(OCC2(CO)COCOC2)cc1 [Compound 1263],< 0.008,,
C#CCCCOc1ccc([C@H]2c3[nH]c4ccc(Cl)cc4c3CCN2C(=O)Oc2ccc(Cl)cc2)cc1 [Compound 1613],,,EC50 [2]: < 0.008 µM
O=C1OCC(COc2ccc(C3c4[nH]c5ccc(Cl)cc5c4CCN3C(=O)Oc3ccc(Cl)cc3)cc2)O1 (centres unmarked) [Compound 421],< 0.008,,
O=C(Oc1ccc(Cl)cc1)N1CCc2c([nH]c3ccc(Cl)cc23)[C@@H]1c1ccc(OC[C@H](O)CN2CCOCC2)cc1 [Compound 1070],,< 0.008,
CC(=O)N1CCN(CCCOc2ccc(C3c4[nH]c5ccc(Cl)cc5c4CCN3C(=O)Oc3ccc(F)cc3)cc2)CC1 (centres unmarked) [Compound 988],,< 0.008,
O=C(Oc1ccc(F)cc1)N1CCc2c([nH]c3ccc(Cl)cc23)C1c1cccc(OCCCn2cncn2)c1 (centres unmarked) [Compound 1155],0.04 to 0.2,,
O=C(Oc1ccc(Cl)cc1)N1CCc2c([nH]c3ccc(Cl)cc23)C1c1ccc(S(=O)(=O)N2CCOCC2)cc1 (centres unmarked) [Compound 450],,,EC50 [4]: 0.008 to 0.04 µM

Compound,EC50 [1] [µM],EC50 [3] [µM],also measured
CCOC(=O)Nc1ccc(C2c3[nH]c4ccc(Cl)cc4c3CCN2C(=O)Oc2ccc(Cl)cc2)cc1 (centres unmarked) [Compound 467],0.008 to 0.04,,
COc1cc(C2c3[nH]c4ccc(Cl)cc4c3CCN2C(=O)Oc2ccc(C)cc2)ccc1OCCCN1CCOCC1 (centres unmarked) [Compound 1132],,0.008 to 0.04,
CN1CCCC1CCOc1ccc(C2c3[nH]c4ccc(Cl)cc4c3CCN2C(=O)Oc2ccc(F)cc2)cc1 (centres unmarked) [Compound 1008],,0.04 to 0.2,
O=C(Oc1ccc(Cl)cc1)N1CCc2c([nH]c3ccc(Cl)cc23)C1c1ccc(OCC(O)CN2CCCC2)cc1 (centres unmarked) [Compound 462],,0.008 to 0.04,
O=C(Oc1ccc(F)cc1)N1CCc2c([nH]c3ccc(Cl)cc23)C1c1ccc(OCCn2cncn2)cc1 (centres unmarked) [Compound 834],0.008 to 0.04,,
O=C(Oc1ccc(Cl)cc1)N1CCc2c([nH]c3ccc(Cl)cc23)C1c1ccc(OCCN2CCOCC2)cc1 (centres unmarked) [Compound 331],,> 1,
COCC(=O)NCC(O)COc1ccc(C2c3[nH]c4ccc(Cl)cc4c3CCN2C(=O)Oc2ccc(Cl)cc2)cc1 (centres unmarked) [Compound 1225],0.008 to 0.04,,
O=C(Oc1ccc(Cl)cc1)N1CCc2c([nH]c3ccc(Cl)cc23)[C@@H]1c1ccc(OCCC(O)CN(CCO)CCO)cc1 (some centres unmarked) [Compound 1280],,0.008 to 0.04,
COc1ccc(C2c3[nH]c4ccc(Cl)cc4c3CCN2C(=O)Oc2ccccc2Cl)cc1 (centres unmarked) [Compound 587],0.04 to 0.2,,
O=C(Oc1ccccc1)N1CCc2c([nH]c3ccc(Cl)cc23)C1c1ccc(OCCCn2cncn2)cc1 (centres unmarked) [Compound 891],< 0.008,,
O=C(Oc1ccc(Cl)cc1)N1CCc2c([nH]c3ccc(Cl)cc23)[C@@H]1c1ccc(OC(CO)CO)cc1 [Compound 1259],0.008 to 0.04,,
COc1ccc(C2c3[nH]c4ccc(OCc5ccccc5)cc4c3CCN2C(=O)Oc2ccc(Cl)cc2)cc1 (centres unmarked) [Compound 616],0.2 to 1,,
CCN1CCN(C(=O)COc2ccc(C3c4[nH]c5ccc(Cl)cc5c4CCN3C(=O)Oc3ccc(F)cc3)cc2)CC1 (centres unmarked) [Compound 1024],,0.04 to 0.2,
O=C(Oc1ccc(Cl)cc1)N1CCc2c([nH]c3ccc(Cl)cc23)[C@H]1c1ccc(OCCCn2ccnn2)cc1 [Compound 1069],< 0.008,,
CN1CCN(CC(O)COc2ccc(C3c4[nH]c5ccc(Cl)cc5c4CCN3C(=O)Oc3ccc(F)cc3)cc2)CC1 (centres unmarked) [Compound 963],,0.008 to 0.04,
COCCCNCCCCOc1ccc(C2c3[nH]c4ccc(Cl)cc4c3CCN2C(=O)Oc2ccc(Cl)cc2)cc1 (centres unmarked) [Compound 701],,0.008 to 0.04,
CC1(C)OC[C@H](COc2ccc([C@H]3c4[nH]c5ccc(Cl)cc5c4CCN3C(=O)Oc3ccc(Cl)cc3)cc2)O1 [Compound 1227],< 0.008,,
O=C(Oc1ccc(Cl)cc1)N1CCc2c([nH]c3ccc(Cl)cc23)C1c1ccc(OCC[C@H](O)CO)cc1 (some centres unmarked) [Compound 1172],< 0.008,,
O=C(Oc1ccc(F)cc1)N1CCc2c([nH]c3ccc(Cl)cc23)C1c1ccc(OCCCO)cc1 (centres unmarked) [Compound 1110],< 0.008,,
CC(C)c1ccc(C2c3[nH]c4ccc(Cl)cc4c3CCN2C(=O)Oc2ccc(Cl)cc2)cc1 (centres unmarked) [Compound 348],< 0.008,,
